Laboratory results taken from patent US8293258B2, “Pesticide treatments made from hop extracts” (John I. Hass, Inc., priority 2000, dated 2012).

Experiments:
[1] = tested on: Erysiphe (=Uncinula) necator; test: Grapevine powdery mildew control test (experimental vineyard); assay type: in vivo; settings: standard control fungicide, concentration not given; percent of grape clusters that showed disease
Description: The grapevine powdery mildew organism is the fungus Erysiphe (=Uncinula) necator and the host plant is wine grape plant Vitis vinifera. Tests were conducted in an experimental vineyard near Pasco, Wash. Treatments were applied using an airblast sprayer at a volume of 100 gallons per acre. Disease inoculum was natural and had been the heaviest it has been in at least seven years. Plot size was five grape plants. Treatments were replicated four times and evaluations were made on September 4th. […] Percent severity is the portion of each grape cluster that was covered with symptoms.

[2] = tested on: predator mites Galendromus occidentalis and Neoseiulus fallacis; settings: in vivo
Description: Final concentrations of each component of the tank mix are: one-half percent liquid soap, one percent crop oil and one percent beta acids.
This mixture was applied to hop plants using a Windmill 400 gallon airblast sprayer. The mixture was applied to a one-acre test plot at the rate of 20 gallons per acre and to another one-acre plot at the rate of 100 gallons per acre. A total of five applications were made during the growing season. The first was made June 9th and the final on August 1st. Counts of live spider mites were made periodically during the season to monitor the effect of the product on the number of live mites. Simultaneously, the beneficial predator mites Galendromus occidentalis and Neoseiulus fallacis were counted to determine the effect of the product on these predator mites since these predator mites are useful in helping to reduce the numbers of twospotted spider mites.

Row | Compound | Percent Incidence [1] | predator numbers [2] | predator numbers, highest reached [2]
1 | OC(c1ccc(Cl)cc1)(c1cncnc1)c1ccccc1Cl (stereo not drawn) [Standard Control, Fenarimol] | 71% | – | –
2 | Beta Acids | – | quite high | ≤ 12 per leaf
